# Results published in US10202330B2, “Lysine specific demethylase-1 inhibitors and their use” (ORYZON GENOMICS S.A., priority 2010, dated 2019).
# Where a name gives a salt, the structure may show the parent alone. Read-outs that look alike come from different tables or passages of the source.
# Legend:
# [1] = biological target: Human recombinant LSD1 protein (Homo sapiens (Human), UniProt O60341); test: LSD1 inhibition, Amplex Red peroxide/peroxidase-coupled assay with di-methylated H3-K4 peptide; format: biochemical
# Experimental: The demethylase activity was estimated, under aerobic conditions, by measuring the release of H2O2 produced during the catalytic process, using the Amplex® Red peroxide/peroxidase-coupled assay kit (Invitrogen).
# Within the experiment, each concentration of inhibitor was tested in triplicate. […] The enzymatic reactions were set up in a 50 mM sodium phosphate, pH 7.4 buffer. At the end of the incubation, Amplex® Red reagent and horseradish peroxidase (HPR) solution were added to the reaction according to the recommendations provided by the supplier (Invitrogen), and left to incubate for 30 extra minutes at room temperature in the dark. A 1 μM H2O2 solution was used as a control of the kit efficiency. The conversion of the Amplex® Red reagent to resorufin due to the presence of H2O2 in the assay, was monitored by fluorescence (excitation at 540 nm, emission at 590 nm) using a microplate reader (Infinite 200, Tecan). Arbitrary units were used to measure level of H2O2 produced in the absence and/or in the presence of inhibitor.
# The Ki (IC50) of each inhibitor was estimated at half of the maximum activity.
# [2] = biological target: Human recombinant monoamine oxidase MAO-A (Homo sapiens (Human), UniProt P21397); test: Monoamine oxidase assay, kynuramine to 4-hydroxyquinoline fluorescence; format: biochemical; conditions: Ki (IC50) at Vmax/2; two ranges listed = near the boundary
# Text: (§1) In order to monitor MAO enzymatic activities and/or their inhibition rate by inhibitor(s) of interest, a fluorescent-based (inhibitor)-screening assay was set up. 3-(2-Aminophenyl)-3-oxopropanamine (kynuramine dihydrobromide, Sigma Aldrich), a non fluorescent compound was chosen as a substrate. Kynuramine is a non-specific substrate for both MAOs activities. While undergoing oxidative deamination by MAO activities, kynuramine is converted into 4-hydroxyquinoline (4-HQ), a resulting fluorescent product.
# (§2) The monoamine oxidase activity was estimated by measuring the conversion of kynuramine into 4-hydroxyquinoline. Assays were conducted in 96-well black plates with clear bottom (Corning) in a final volume of 100 μL. The assay buffer was 100 mM HEPES, pH 7.5. Each experiment was performed in triplicate within the same experiment.
# (§3) The oxidative deamination of the substrate was stopped by adding 50 μL (v/v) of NaOH 2N. […] Arbitrary units were used to measure levels of fluorescence produced in the absence and/or in the presence of inhibitor.
# (§4) The Ki (IC50) of each inhibitor was determined at Vmax/2.
# [3] = biological target: Human recombinant monoamine oxidase MAO-B (Homo sapiens (Human), UniProt P27338); test: as above; format: biochemical; conditions: Ki (IC50) at Vmax/2; two ranges listed = near the boundary
# Text: as §1, §2, §3, §4
# [4] = test system: human colon cancer cell line HCT116; test: Cancer cell line study, alamarBlue viability assay; format: cell-based; conditions: HCT-116, read-out: EC50 (dose required to inhibit cell growth by 50%), HCT116, 72 hours
# Experimental: The HCT116 cell line was maintained in DMEM GlutaMAX (Invitrogen) supplemented with 10% fetal calf serum.
# Cells were grown in a humidified incubator at 37° C. in 5% CO2.
# Cells were plated in 96-well plates at a density of 6000 cells/well in 100 μl medium 24 h before addition of drugs. […] To do so, a drugs-dilution plate at twice the screening concentrations was prepared. 72 hours later, alamarBlue (Biosource, Invitrogen) viability assay was performed following manufacturer's protocol. In brief, alamarBlue diluted in media was added to cells to have a 5% solution. Cells were incubated at 37° C., 3 hours and at room temperature, 30 min. Cells with no drug and, cells with no drug and lysed with triton X-100 were used as controls. Fluorescence was monitored at 530 nm excitation and 590 nm emission wavelengths. Results were quantified using Infinite F200 Microplate Reader (Tecan Group, Ltd.).
# [5] = Ki (IC50) at half of the maximum activity, two ranges listed = near the boundary, read-out: LSD1 (Ki)
SMILES,"Ki [1, 5] [µM]",Ki [2] [µM],Ki [3] [µM],MAO-B (Ki) [3],"LSD1 (Ki) ([1]; Ki (IC50) at half of the maximum activity, two ranges listed = near the boundary)",Ki [1] [µM],EC50 [4] [µM]
"c1ccc([C@H]2C[C@@H]2NCCCC2CCCCC2)cc1 (relative stereo) [Example 13, (Trans)-N-(3-cyclohexylpropyl)-2-phenylcyclopropanamine hydrochloride]",0.1 to 1,1 to 40,1 to 40,,,,
"c1ccc([C@H]2C[C@@H]2NCCC2CCCCCC2)cc1 (relative stereo) [Example 14, (Trans)-N-(2-cycloheptylethyl)-2-phenylcyclopropanamine hydrochloride]",0.1 to 1,1 to 40,1 to 40,,,,
"Brc1cccc(COc2ccc([C@H]3C[C@@H]3NCCC3CCCCC3)cc2)c1 (relative stereo) [Example 15, (Trans)-2-(4-(3-bromobenzyloxyl)phenyl)-N-(2-cyclohexylethyl)cyclopropanamine hydrochloride]",,1 to 40,0.1 to 1,,,0.1 to 1,~13.3
"COc1ccc2c(c1)C(N[C@@H]1C[C@H]1c1ccc(OCc3ccccc3)cc1)CCC2 (relative stereo) [Example 20, N-((trans)-2-(4-(benzyloxy)phenyl)cyclopropyl)-7-methoxy-1,2,3,4-tetrahydronaphthalen-1-amine]",0.1 to 1,1 to 40,1 to 40,,,,
"COc1ccc2c(c1)C(N[C@H]1CC1c1ccccc1)CC2 (stereo in doubt) [Example 5, 6-methoxy-N-((trans)-2-phenylcyclopropyl)-2,3-dihydro-1H-inden-1-amine]",,1 to 40,,,,,
"Clc1ccc2c(c1)C(N[C@H]1CC1c1ccccc1)CC2 (stereo in doubt) [Example 6, 6-chloro-N-((trans)-2-phenylcyclopropyl)-2,3-dihydro-1H-inden-1-amine hydrochloride]",0.1 to 1,1 to 40,1 to 40,,,,
"COc1ccc2c(c1)C(N[C@H]1CC1c1ccccc1)CCC2 (stereo in doubt) [Example 8, 7-methoxy-N-((trans)-2-phenylcyclopropyl)-1,2,3,4-tetrahydronaphthalen-1-amine]",0.1 to 1,1 to 40,1 to 40,,,,

# Further lines, with some results ahead:
"Ki [1, 5] [µM]",Ki [2] [µM],Ki [3] [µM],MAO-B (Ki) [3],"LSD1 (Ki) ([1]; Ki (IC50) at half of the maximum activity, two ranges listed = near the boundary)",SMILES,Ki [1] [µM],EC50 [4] [µM]
,1 to 40,,"II, III",,"COc1ccc2c(c1)C(N[C@H]1CC1c1ccc(OCc3ccccc3)cc1)CC2.Cl (stereo in doubt) [Example 1, N-((trans)-2-(4-(benzyloxy)phenyl)cyclopropyl)-6-methoxy-2,3-dihydro-1H-inden-1-amine hydrochloride]",,
,1 to 40,1 to 40,,"II, III","COc1ccc2c(c1OC)CCC2N[C@H]1CC1c1ccc(OCc2ccccc2)cc1.Cl (stereo in doubt) [Example 3, N-((trans)-2-(4-(benzyloxy)phenyl)cyclopropyl)-4,5-dimethoxy-2,3-dihydro-1H-inden-1-amine hydrochloride]",,~37
,1 to 40,,,,"c1ccc(C2C[C@@H]2NC2CCc3ccccc32)cc1 (stereo in doubt) [Example 4, N-((trans)-2-phenylcyclopropyl)-2,3-dihydro-1H-inden-1-amine hydrochloride]",,
,1 to 40,,,,"COc1cccc(-c2ccc(C3C[C@@H]3NC3CCc4ccc(OC)cc43)cc2)c1 (stereo in doubt) [Example 11, 6-methoxy-N-((trans)-2-(3′-methoxybiphenyl-4-yl)cyclopropyl)-2,3-dihydro-1H-inden-1-amine hydrochloride]",,
0.1 to 1,1 to 40,1 to 40,,,"COc1ccc2c(c1)C(N[C@H]1CC1c1ccc(OCc3cccc(Br)c3)cc1)CC2 (stereo in doubt) [Example 16, N-((trans)-2-(4-(3-bromobenzyloxyl)phenyl)cyclopropyl)-6-methoxy-2,3-dihydro-1H-inden-1-amine hydrochloride]",,
